Measurements as given in patent US20220315968A1, “PEPTIDES AND METHODS FOR THE CARBON-CARBON BOND FORMATION” (Max-Planck-Gesellschaft zur Förderung der Wissenschaften …, priority 2019, published 2022).

Legend:
[1] = tested on: OXS-OXCMe-YciA cascade with FRC; assay: OXS-OXCMe-Y497A-YciA cascade with FRC (α-hydroxy carboxylic acid from oxalate, one pot); assay type: biochemical; conditions: 2 μM FRC, 7.6 mM benzaldehyde or phenylacetaldehyde, 10 μM OXCMe-Y497A
Method: 0.5 mM ADP, 0.15 mM ThDP, 0.5 mM CoA, 10 mM ATP, 7.6 mM benzaldehyde or phenylacetaldehyde, 2 μM FRC, 2 μM YciA, 10 μM OXCMe-Y497A and 5 μM OXS. The reaction was started by adding 10 mM disodium oxalate. Samples were taken after 0, 15, 30, 60 min and analyzed with the mandelic acid derivatives method described above.
0.5 mM ADP, 0.15 mM ThDP, 0.5 mM CoA, 10 mM ATP, 7.6 mM benzaldehyde or phenylacetaldehyde, 2 μM FRC (Formyl-CoA:oxalate CoA-transferase from Oxalobacter formigenes EC 2.8.3.16), 2 μM YciA, 10 μM OXCMe-Y497A and 5 μM OXS were mixed and the reaction was initiated by the addition of 10 mM disodium oxalate. For the negative control FRC was omitted in a separate reaction. Samples were taken after 0, 15, 30, 60 min and analyzed with the mandelic acid derivatives method described above.

[2] = tested on: OXS-OXCMe-Y497A-YciA cascade; assay type: biochemical; conditions: 25 mM aldehyde, 10 mM disodium oxalate, 10 mM ATP, OXS 5 μM, OXCMe-Y497A 5 μM, YciA 2 μM; chiral HPLC
Method: Samples were diluted 1:10 in H2O. UPLC-high resolution MS analyses were performed on an Agilent 6550 iFunnel QTOF LC/MS system equipped with an electrospray ionization source to negative ionization mode. The analytes were isocratically chromatographed on a chiral column (100 mm×2.1 mm, particle size 2.7 μm, Poroshell 120 Chiral-T, Agilent) kept at ambient temperature using a mobile phase system comprised of 30:70 20 mM ammonium formate pH 4/methanol at a flow rate of 250 μl/min for 10 min. Samples were held at 10° C. and injection volume was 1 μl. […] MS data were acquired with a scan range of 100-1100 m/z. For quantification the calculated m/z value of [M-H]^− was used to obtain the extracted ion count from the total ion count.
0.5 mM ADP, 0.15 mM ThDP, 0.5 mM CoA, 10 mM ATP, 25 mM benzaldehyde, 5 μM OXS, 5 μM OXC and 2 μM YciA. The reaction was started by adding 10 mM oxalate. As negative controls, YciA, OXS or OXC were omitted in separate reactions. Samples were taken after 0, 0.05, 0.25, 0.66, 1, 2, 3, 22 hours and analyzed with the LC-MS detection of mandelic acid derivatives.
The aldehyde substrate screen of the OXS-OXCMe-Y497A-YciA cascade was carried out as described above (example 13), except that the aromatic aldehydes were prepared as 33 mM stocks in 20 vol % DMSO and diluted to final concentration of 25 mM into the assay. Samples were analyzed with the mandelic acid derivatives method described above. Mandelic acid (3a), 4-chloromandelic acid (3c), 2-chloromandelic acid (3d) and 3-phenyllactic acid (3b) were quantified by comparison to commercial standards.

[3] = target: T1, HACLHs (Homo sapiens, UniProt Q9UJ83); assay: Aldehyde and ketone screen with HACLHs (carboligation with formyl-CoA, LC-MS of CoA esters); assay type: biochemical; conditions: 10 mM aldehyde, 1 mM formyl-CoA, 5 μM enzyme, 1 h, relative to the comparison of OXC and HACL, n.d. = product not detected
T1 construct: His-tag (from vector pET-16b); made in house; host or cells: E. coli ArcticExpress (DE3)
Method: Samples were diluted 1:10 in H2O. […] Standard injection volume was 1 μl.
0.5 mM ADP, 0.15 mM ThDP.

[4] = tested on: OXCMe; assay: OXCMe aldehyde and ketone screen (carboligation with formyl-CoA, LC-MS of CoA esters); conditions: 10 mM aldehyde, 1 mM formyl-CoA, 5 μM enzyme, 1 h, relative to the comparison of OXC and HACL, n.d. = product not detected
Method: Samples were diluted 1:10 in H2O. UPLC-high resolution MS of CoA esters was performed as described previously.^[5] CoA esters were analyzed using an Agilent 6550 iFunnel Q-TOF LC-MS system equipped with an electrospray ionization source set to positive ionization mode. Compounds were separated on a RP-18 column (50 mm×2.1 mm, particle size 1.7 μm, Kinetex EVO C18, Phenomenex) using a mobile phase system comprised of 50 mM ammonium formate pH 8.1 (A) and methanol (B). Chromatographic separation was carried out using the following gradient condition at a flow rate of 250 μl/min: 0 min 2.5% B; 2.5 min 2.5% B; 8 min 23% B; 10 min 80% B; 11 min 80%; 12 min 2.5% B; 12.5 min 0% B. The column oven was set to 40° C. and autosampler was maintained at 10° C. Standard injection volume was 1 μl. Capillary voltage was set at 3.5 kV and nitrogen gas was used as nebulizing (20 psig), drying (13 l/min, 225° C.) and sheath gas (12 l/min, 400° C.). […] The scan range for MS and MS/MS data is 100-1000 m/z and 50-1000 m/z respectively. Collision energy used for MS/MS fragmentation was 35 eV.
Unless noted otherwise, all LC-MS assays were carried out at 30° C. in reaction buffer consisting of 50 mM TES-KOH pH 6.8, 10 mM MgCl2. 0.5 mM ADP, 0.15 mM ThDP.
In reaction buffer, 1 mM formyl-CoA and 10 mM aldehyde (formaldehyde, acetaldehyde, glycolaldehyde, propionaldehyde, glyceraldehyde, glyoxylate, succinic semialdehyde, benzaldehyde, phenylacetaldehyde, and acetone) was mixed with 5 μM OXCMe or HACLHs. The reaction was stopped after 1 h and products analyzed with the CoA ester method described above.

[5] = target: T2, YciA (Escherichia coli, UniProt P0A8Z0); assay: YciA substrate screen (thioesterase activity towards oxalyl-CoA, formyl-CoA, mandelyl-CoA); assay type: biochemical, E. coli; conditions: 2 μM YciA, 0.5 mM CoA ester, 30° C., pH 6.8
T2 construct: His-tag (ASKA clone); made in house; host or cells: E. coli BL21 (DE3)
Method: 0.5 mM ADP, 0.15 mM ThDP and 25 mM benzaldehyde, 2 μM YciA (A) or no YciA (B). The reaction was started by adding either 0.5 mM formyl-CoA or 0.5 mM oxalyl-CoA or 0.5 mM mandelyl-CoA. Samples were taken after 0, 1, 5 and 30 minutes and analyzed with the LC-MS detection of CoA esters. CoA esters were quantified by comparison to synthetic standards of formyl-CoA, oxalyl-CoA and mandelyl-CoA, respectively. Error bars show standard deviation of two.
Thioesterase activity of YciA towards oxalyl-CoA, formyl-CoA and racemic mandelyl-CoA. […] 0.5 mM ADP, 0.15 mM ThDP and 25 mM benzaldehyde, 2 μM YciA (A) or no YciA (B). The reaction was started by adding either 0.5 mM formyl-CoA or 0.5 mM oxalyl-CoA or 0.5 mM mandelyl-CoA. Samples were taken after 0, 1, 5 and 30 minutes and analyzed with the LC-MS detection of CoA esters. CoA esters were quantified by comparison to synthetic standards of formyl-CoA, oxalyl-CoA and mandelyl-CoA, respectively.

T1 sequence (Q9UJ83 whole entry): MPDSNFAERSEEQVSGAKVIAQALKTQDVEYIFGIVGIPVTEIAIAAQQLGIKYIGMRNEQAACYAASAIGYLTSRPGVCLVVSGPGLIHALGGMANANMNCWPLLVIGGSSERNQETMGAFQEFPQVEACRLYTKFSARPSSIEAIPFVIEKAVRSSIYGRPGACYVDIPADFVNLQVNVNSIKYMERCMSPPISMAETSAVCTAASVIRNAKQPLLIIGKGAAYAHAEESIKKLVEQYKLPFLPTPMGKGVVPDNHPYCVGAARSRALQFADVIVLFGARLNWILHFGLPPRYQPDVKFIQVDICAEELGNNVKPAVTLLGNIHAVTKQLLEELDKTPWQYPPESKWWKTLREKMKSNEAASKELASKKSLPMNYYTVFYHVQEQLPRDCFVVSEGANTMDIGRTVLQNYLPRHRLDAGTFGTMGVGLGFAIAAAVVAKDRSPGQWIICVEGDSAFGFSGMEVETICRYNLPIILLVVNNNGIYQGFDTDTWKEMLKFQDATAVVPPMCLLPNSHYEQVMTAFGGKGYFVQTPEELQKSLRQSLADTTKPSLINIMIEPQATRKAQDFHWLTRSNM
T2 sequence (P0A8Z0 whole entry): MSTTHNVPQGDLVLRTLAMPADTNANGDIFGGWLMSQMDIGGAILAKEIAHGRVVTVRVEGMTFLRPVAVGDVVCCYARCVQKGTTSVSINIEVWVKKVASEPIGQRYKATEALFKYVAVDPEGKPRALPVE

Row | HACLHs relative activity [3] [%] | SMILES | increase of product formation rate by addition of FRC [1] [fold] | Conversion [%] [2] [%] | OXCMe relative activity [4] [%] | thioesterase activity of YciA towards the CoA ester [5]
1 |  | O=C(O)C(O)Cc1ccccc1 (racemic) [3-phenyllactic acid] | 2.3 | 58 |  | 
2 |  | O=C(O)C(O)c1ccc(Cl)cc1 (racemic) [4-chloromandelic acid] |  | 57 |  | 
3 |  | O=C(O)[C@@H](O)c1ccccc1Cl [2-chloromandelic acid, (S)-2-chloromandelic acid] |  | 93 |  | 
4 | 100 | CCC(O)C(=O)SCCNC(=O)CCNC(=O)[C@H](O)C(C)(C)COP(=O)(O)OP(=O)(O)OC[C@H]1O[C@@H](n2cnc3c(N)ncnc32)[C@H](O)[C@@H]1OP(=O)(O)O (some centres unmarked) [2-hydroxybutyryl-CoA] |  |  | 5 | 
5 | 100 | CC(C)(COP(=O)(O)OP(=O)(O)OC[C@H]1O[C@@H](n2cnc3c(N)ncnc32)[C@H](O)[C@@H]1OP(=O)(O)O)[C@@H](O)C(=O)NCCC(=O)NCCSC(=O)C(O)CCC(=O)O (some centres unmarked) [2-hydroxyglutaryl-CoA] |  |  | 1 | 
6 |  | CC(C)(COP(=O)(O)OP(=O)(O)OC[C@H]1O[C@@H](n2cnc3c(N)ncnc32)[C@H](O)[C@@H]1OP(=O)(O)O)[C@@H](O)C(=O)NCCC(=O)NCCSC=O [formyl-CoA] |  |  |  | low activity
7 | 100 | CC(C)(COP(=O)(O)OP(=O)(O)OC[C@H]1O[C@@H](n2cnc3c(N)ncnc32)[C@H](O)[C@@H]1OP(=O)(O)O)[C@@H](O)C(=O)NCCC(=O)NCCSC(=O)C(O)CO (some centres unmarked) [glyceryl-CoA] |  |  | 1 | 
8 | 11 | CC(C)(COP(=O)(O)OP(=O)(O)OC[C@H]1O[C@@H](n2cnc3c(N)ncnc32)[C@H](O)[C@@H]1OP(=O)(O)O)[C@@H](O)C(=O)NCCC(=O)NCCSC(=O)CO [glycolyl-CoA] |  |  | 100 | 
9 | 100 | CC(O)C(=O)SCCNC(=O)CCNC(=O)[C@H](O)C(C)(C)COP(=O)(O)OP(=O)(O)OC[C@H]1O[C@@H](n2cnc3c(N)ncnc32)[C@H](O)[C@@H]1OP(=O)(O)O (some centres unmarked) [lactyl-CoA] |  |  | 74 | 
10 |  | O=C(O)C(O)c1ccccc1 (centres unmarked) [mandelic acid] | 1.4 | 75 |  | 
11 |  | CC(C)(COP(=O)(O)OP(=O)(O)OC[C@H]1O[C@@H](n2cnc3c(N)ncnc32)[C@H](O)[C@@H]1OP(=O)(O)O)[C@@H](O)C(=O)NCCC(=O)NCCSC(=O)C(=O)O [oxalyl-CoA] |  |  |  | no activity

Row | SMILES | HACLHs relative activity [3] [%] | increase of product formation rate by addition of FRC [1] [fold] | Conversion [%] [2] [%] | OXCMe relative activity [4] [%] | thioesterase activity of YciA towards the CoA ester [5]
12 | CC(C)(COP(=O)(O)OP(=O)(O)OC[C@H]1O[C@@H](n2cnc3c(N)ncnc32)[C@H](O)[C@@H]1OP(=O)(O)O)[C@@H](O)C(=O)NCCC(=O)NCCSC(=O)C(O)c1ccccc1 (some centres unmarked) [mandelyl-CoA] | 3 |  |  | 100 | relatively high
13 | CC(C)(COP(=O)(O)OP(=O)(O)OCC1OC(n2cnc3c(N)ncnc32)C(O)C1OP(=O)(O)O)C(O)C(=O)NCCC(=O)NCCSC(=O)C(O)Cc1ccccc1 (centres unmarked) [phenyllactyl-CoA] | 100 |  |  | 22 | 
